# ChEMBL document CHEMBL3039007, “Structure-based identification of OATP1B1/3 inhibitors” (Mol Pharmacol, 2013)
# Tests used:
# [1] = target: T1, Solute carrier organic anion transporter family member 1B1 (Homo sapiens, UniProt Q9Y6L6); conditions: chinese hamster, cho, 10 µM
# T1 sequence (Q9Y6L6 whole entry): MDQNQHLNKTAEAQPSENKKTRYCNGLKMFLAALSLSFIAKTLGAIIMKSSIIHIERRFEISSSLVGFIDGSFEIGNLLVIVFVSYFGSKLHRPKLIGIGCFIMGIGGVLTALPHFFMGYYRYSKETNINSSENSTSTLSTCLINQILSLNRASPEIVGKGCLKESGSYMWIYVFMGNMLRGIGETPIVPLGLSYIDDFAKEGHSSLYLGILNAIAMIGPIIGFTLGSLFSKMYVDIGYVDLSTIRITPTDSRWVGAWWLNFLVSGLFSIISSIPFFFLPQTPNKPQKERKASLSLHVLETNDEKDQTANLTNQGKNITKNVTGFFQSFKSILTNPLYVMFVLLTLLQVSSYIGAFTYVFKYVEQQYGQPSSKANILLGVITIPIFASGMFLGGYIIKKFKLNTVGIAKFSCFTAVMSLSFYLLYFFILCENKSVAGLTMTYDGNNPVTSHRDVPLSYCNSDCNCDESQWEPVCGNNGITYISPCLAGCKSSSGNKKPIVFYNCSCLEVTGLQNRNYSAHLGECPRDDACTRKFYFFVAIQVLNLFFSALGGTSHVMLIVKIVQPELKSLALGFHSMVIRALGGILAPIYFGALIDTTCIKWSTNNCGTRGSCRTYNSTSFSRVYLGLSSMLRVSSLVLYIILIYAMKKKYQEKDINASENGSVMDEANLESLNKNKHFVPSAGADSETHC
# [2] = target: T2, Solute carrier organic anion transporter family member 1B3 (Homo sapiens, UniProt Q9NPD5)
# T2 sequence (Q9NPD5 whole entry): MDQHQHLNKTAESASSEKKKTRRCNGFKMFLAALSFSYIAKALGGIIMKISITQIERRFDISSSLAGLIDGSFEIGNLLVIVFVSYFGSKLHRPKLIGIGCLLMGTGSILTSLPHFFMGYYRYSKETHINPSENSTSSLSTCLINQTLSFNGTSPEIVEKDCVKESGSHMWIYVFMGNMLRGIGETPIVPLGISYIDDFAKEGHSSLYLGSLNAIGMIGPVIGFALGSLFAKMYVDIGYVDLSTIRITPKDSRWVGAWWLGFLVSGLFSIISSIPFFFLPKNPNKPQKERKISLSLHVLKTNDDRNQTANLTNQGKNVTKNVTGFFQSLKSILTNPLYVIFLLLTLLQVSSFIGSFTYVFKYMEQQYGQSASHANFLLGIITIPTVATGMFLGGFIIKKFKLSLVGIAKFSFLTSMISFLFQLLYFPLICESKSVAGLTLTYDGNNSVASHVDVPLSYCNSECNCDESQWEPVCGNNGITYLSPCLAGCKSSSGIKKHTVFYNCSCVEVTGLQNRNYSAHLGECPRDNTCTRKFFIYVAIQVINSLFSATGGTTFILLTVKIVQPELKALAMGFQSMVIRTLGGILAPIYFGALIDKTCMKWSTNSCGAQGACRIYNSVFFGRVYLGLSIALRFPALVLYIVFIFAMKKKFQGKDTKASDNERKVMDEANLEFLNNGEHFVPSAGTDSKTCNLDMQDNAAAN
# [3] = target: T1, Solute carrier organic anion transporter family member 1B1
# [4] = target: T1, Solute carrier organic anion transporter family member 1B1; remark: listed apart in the source
# [5] = target: T2, Solute carrier organic anion transporter family member 1B3; conditions: chinese hamster, cho, 10 µM
# [6] = target: T2, Solute carrier organic anion transporter family member 1B3; remark: listed apart in the source
residual activity [1] [%],IC50 [2] [nM],Ki [3] [nM],IC50 [4] [nM],residual activity [5] [%],Ki [6] [nM],SMILES
15.29,3390,720,1320,32.05,2630,C=CC1=C(C)/C(=C/c2[nH]c(Cc3[nH]c(/C=C4\NC(=O)C(C)=C4C=C)c(C)c3CCC(=O)O)c(CCC(=O)O)c2C)NC1=O [BILIRUBIN]
7.307,692,380,692,5.392,530,COC(=O)C[C@H]1C2(C)CC34OC5(C)O[C@@]6([C@H](OC(C)=O)C(OC(C)=O)[C@]7(C)C(/C(=C(/O)C(C)C)C(=O)O[C@H]7c7ccoc7)[C@@]6(O5)[C@H](OC(C)=O)[C@@]3(O)C2OC(=O)C(C)C)[C@]14C (some centres not stated) [BUSSEIN]
6.829,724,420,759,3.762,560,COC(=O)C[C@H]1C2(C)CC34OC5(C)O[C@@]6([C@H](OC)C(OC(=O)C(C)C)[C@]7(C)C(/C(=C(/OC)C(C)C)C(=O)O[C@H]7c7ccoc7)[C@@]6(O5)[C@H](OC)[C@@]3(OC)C2OC(C)=O)[C@]14C (some centres not stated) [CHUKRASIN METHYL ETHER]
11.45,2000,370,676,9.757,1550,Cc1onc(-c2c(Cl)cccc2Cl)c1C(=O)N[C@@H]1C(=O)N2[C@@H]1SC(C)(C)[C@@H]2C(=O)[O-].O.[Na+] [DICLOXACILLIN SODIUM]
46.4,4470,2070,3800,25.25,3460,O=C(O[C@@H]1Cc2c(O)cc(O)cc2O[C@@H]1c1ccc(O)c(O)c1)c1cc(O)c(O)c(O)c1 [EPICATECHIN GALLATE]
6.903,3090,2410,4370,7.433,2350,CCC(=O)O[C@H]1[C@H](O[C@@H]2[C@@H](C)[C@H](O[C@H]3C[C@@](C)(OC)[C@@H](O)[C@H](C)O3)[C@@H](C)C(=O)O[C@H](CC)[C@@](C)(O)[C@H](O)[C@@H](C)C(=O)[C@H](C)C[C@@]2(C)O)O[C@H](C)C[C@@H]1N(C)C.CCCCCCCCCCCCOS(=O)(=O)O [ERYTHROMYCIN ESTOLATE]
3.592,2090,1670,3020,30.5,1610,CCOC(=O)CCC(=O)O[C@H]1[C@H](O[C@@H]2[C@@H](C)[C@H](O[C@H]3C[C@@](C)(OC)[C@@H](O)[C@H](C)O3)[C@@H](C)C(=O)O[C@H](CC)[C@@](C)(O)[C@H](O)[C@@H](C)C(=O)[C@H](C)C[C@@]2(C)O)O[C@H](C)C[C@@H]1N(C)C [ERYTHROMYCIN ETHYLSUCCINATE]
4.093,2630,60,102,15.01,2020,COC(=O)c1c(OC)cc2c(c1C)Oc1c(Cl)c(O)c(Cl)c(C)c1C(=O)O2 [GANGALEOIDIN]
30.6,2240,650,1170,3.626,1730,CC(C)=CCCC1(C)C=Cc2c(O)c3c(c(CC=C(C)C)c2O1)OC12C(=CCCC1C(C)(C)O[C@@]2(C/C=C(\C)C(=O)O)C(=O)O)C3=O (some centres not stated) [GARCINOLIC ACID]
19.44,5010,1220,2240,23.53,3890,CC(=O)OC/C=C(C)/C=C/C=C(C)/C=C/C1=C(C)CCCC1(C)C [GILRETINOL ACETATE]
40.18,891,2110,3800,18.59,680,CC1(C)CC[C@]2(C(=O)O)CC[C@]3(C)C(=CC[C@@H]4[C@@]5(C)CC[C@H](O)[C@@](C)(CO)[C@@H]5CC[C@]43C)[C@@H]2C1 [HEDERAGENIN]

# The remaining lines, values behind:
SMILES,residual activity [1] [%],IC50 [2] [nM],Ki [3] [nM],IC50 [4] [nM],residual activity [5] [%],Ki [6] [nM]
CC(=O)Oc1c2c(c(CC=C(C)C)c3c1C(=O)C1=C[C@@H]4CC5C(C)(C)OC(C/C=C(\C)C(=O)O)(C4=O)[C@@]15O3)OC(C)(CCC=C(C)C)C=C2 (some centres not stated) [ACETYL ISOGAMBOGIC ACID],10.38,5370,2240,4070,30.34,4170
CC(=O)O[C@@H]1C[C@@]2(C)[C@H](c3ccoc3)C[C@H]3O[C@]32[C@]2(C)C(=O)C(O)=C3C(C)(C)C(=O)C=C[C@]3(C)C12 (some centres not stated) [ANTHOTHECOL],20.37,3470,1650,3020,12.42,2640
CCCCC/C=C\C/C=C\C/C=C\C/C=C\CCCC(=O)O [ARACHIDONIC ACID],23.4,1070,330,603,5.402,820
O=C1C=CC(=C(c2ccc(O)cc2)c2ccc(O)cc2)C=C1 [AURIN],4.068,4070,1430,2630,20.35,3150
"COC(=O)CC[C@@H](C)[C@H]1CC[C@H]2[C@@H]3[C@H](O)C[C@@H]4C[C@H](O)CC[C@]4(C)[C@H]3C[C@H](O)[C@]12C [CHOLIC ACID, METHYL ESTER]",26.02,3720,4580,8320,40.87,2890
CC(C)CCCC1(C)C=Cc2c(O)c3c(c(CCC(C)C)c2O1)OC12C(CC4CC1C(C)(C)OC2(CCC(C)C(=O)O)C4O)C3=O (configuration not stated) [DECAHYDROGAMBOGIC ACID],12.82,2290,620,1150,18.17,1770
CC(C)=CCCC1(C)C=Cc2c(O)c3c(c(CC=C(C)C)c2O1)OC12C(=CC4CC1C(C)(C)OC2(C/C=C(/C)C(=O)O)C4O)C3=O (configuration not stated) [DIHYDROGAMBOGIC ACID],14.23,2880,1230,2240,17.26,2240
COC(=O)/C(C)=C\CC12OC(C)(C)C3CC(C=C4C(=O)c5c(OC)c6c(c(CC=C(C)C)c5OC431)OC(C)(CCC=C(C)C)C=C6)C2=O (configuration not stated) [DIMETHYL GAMBOGATE],23.19,5130,1260,2290,62.06,3940
O=c1c(-c2ccc(O)cc2)coc2cc(O)cc(O)c12 [GENISTEIN],95.56,3890,5000,9120,39.06,2960
O=C(O)c1cc2ccccc2c(Cc2c(O)c(C(=O)O)cc3ccccc23)c1O.OCCOCCN1CCN(C(c2ccccc2)c2ccc(Cl)cc2)CC1 [HYDROXYZINE PAMOATE],12.16,1230,450,813,13.57,940
CC[C@@H](C(=O)[C@@H](C)[C@@H](O)[C@H](C)CCc1ccc(C)c(O)c1C(=O)[O-])[C@H]1O[C@](CC)([C@H]2CC[C@](O)(CC)[C@H](C)O2)C[C@@H]1C.[Na+] [LASALOCID A SODIUM],10.29,776,260,479,6.678,590
